Data published in US10973801B2, “Capsid assembly modulator dosing regimen” (Janssen Sciences Ireland Unlimited Company, priority 2018, dated 2021).
“And” between values parts separate entries of the source, which are not always exact repeats. Equal entries are not always repeated. Where two headings read alike, the source gives them in different places.

How the values were obtained:
[1] = Pharmacokinetics of Compound A in chronic HBV patients, 28 day treatment; assay type: in vivo, human
Description: (§1) In part 2 of this study (FIG. 1, sessions 8-9), the objective was to evaluate the safety, PK, and antiviral activity of Compound A in treatment naïve, chronic hepatitis B patients over a 28-day treatment period. The patient criteria were: • HBeAg-positive or negative • Plasma HBV DNA>2.0 log 10 IU/mL • ALT/AST<2.5×ULN • METAVIR stage<F3. 1.1 Patient Baseline Characteristics
The exposure (Cmax, AUC) increased in a dose-dependent manner with time-linear PK. The pharmacokinetics of Compound A were not markedly different between healthy volunteers and patients. Mean Compound A exposures in patients with CHB could be predicted from data in healthy volunteers. Mean (±SD) exposure in the 75 mg arm was within 90% prediction interval. […] Apparent clearance was low and similar in the two dosing groups (1 and 0.9 L/h at 25 mg and 75 mg, respectively).

[2] = tested on: HBV DNA; assay: Plasma HBV DNA in treatment naïve chronic hepatitis B patients; assay type: in vivo, hepatitis B virus; details: for HBV DNA Day 29 Mean Change from Baseline: N 8; for mean reduction in plasma HBV DNA levels from baseline: after 28 days
Description: Serum HBV DNA quantitation can be performed according to methods known in the art, for example, using the polymerase chain reaction (PCR)-based assay COBAS® TAQMAN® HBV Test v2.0 (Roche Diagnostics), which has been validated to quantify HBV DNA from serum samples for diverse HBV genotypes (A-H) including pre-core mutant HBV strains, with a reported lower limit of detection of 35 IU/mL and a linear dynamic range of quantitation of 1.7×10^2 to 8.5×10^8 IU/mL IU/mL, using the WHO pooled serum reference standard for quantitation.
as §1
HBV DNA was assessed for each patient weekly during this study (see FIG. 3). A mean reduction in plasma HBV DNA levels of 2.16 (±0.49 SD) log10 IU/mL (25 mg Compound A) and 2.89 (±0.48 SD) log10 IU/mL (75 mg Compound A) from baseline was observed after 28 days. Three patients dosed with 75 mg QD achieved HBV DNA below the level of quantification of the HBV DNA assay while none in the 25 mg Compound A group achieved this. A more pronounced and consistent decline in HBV DNA was observed across patients in the 75 mg group compared with the 25 mg group.

[3] = Safety and tolerability of single ascending doses in healthy Japanese volunteers; assay type: in vivo, human
Method: A double-blind, placebo-controlled study was done to assess the safety, tolerability, and pharmacokinetics (PK) of Compound A. Thirty-two healthy adult Japanese volunteers were randomized into four cohorts. The volunteers were randomized 3:1 to receive a single dose of Compound A or placebo in a fasted state (see FIG. 4). The safety, tolerability and PK plasma profiles of Compound A were assessed after each dose. Full plasma PK profiles were determined up to 28 days after each single dose of Compound A. Urinary elimination was assessed in Cohort C (see FIG. 4) for 7 day. […] The treatment emergent adverse events (TEAEs) reported reported were hiccups, upper respiratory tract infection, nasal congestion, and cough. […] No significant laboratory abnormalities were discovered, most laboratory abnormalities were Grade 1.

[4] = Pharmacokinetics of single ascending doses in healthy Japanese volunteers; assay type: in vivo, human; details: for Mean CL/F (SD) / Cmax / Vd/F / half-life / Tmax: fasted (n = 6); for Cmax / Vd/F / half-life / Tmax: human, plasma, oral; for Cmax: read-out: Mean Cmax (SD); for Vd/F: read-out: Mean Vd/F (SD); for half-life: read-out: Mean t1/2 term (SD) (converted); for Tmax: read-out: Median tmax
Method: A double-blind, placebo-controlled study was done to assess the safety, tolerability, and pharmacokinetics (PK) of Compound A. Thirty-two healthy adult Japanese volunteers were randomized into four cohorts. The volunteers were randomized 3:1 to receive a single dose of Compound A or placebo in a fasted state (see FIG. 4). The safety, tolerability and PK plasma profiles of Compound A were assessed after each dose. Full plasma PK profiles were determined up to 28 days after each single dose of Compound A. Urinary elimination was assessed in Cohort C (see FIG. 4) for 7 day.
The PKs were dose-dependent in all four treatment cohorts. […] The inter-subject variability, expressed as % CV, was low to moderate and similar across dose levels.

C[C@H](NS(=O)(=O)c1cc(C(=O)Nc2ccc(F)c(C#N)c2)n(C)c1)C(F)(F)F [Compound A]
Apparent clearance ([1]; 25 mg): 1 L/h
Mean dose normalized AUC 0-24 h ([1]; 25 mg): 1109 ng·h/mL
Mean dose normalized Cmax at steady state ([1]; 25 mg): 56.6 ng/mL
dose proportionality of pharmacokinetics ([1]; 25 mg and 75 mg arms): dose-proportional
Apparent clearance ([1]; 75 mg): 0.9 L/h
Mean dose normalized AUC 0-24 h ([1]; 75 mg): 1109 ng·h/mL
Mean dose normalized Cmax at steady state ([1]; 75 mg): 53.2 ng/mL
HBV DNA Day 29 Mean Change from Baseline ([2]; 25 mg QD): −2.16 log10 IU/mL
mean reduction in plasma HBV DNA levels from baseline ([2]; 25 mg): 2.16 (±0.49 SD) log10 IU/mL and 2.16 (±0.49) log10 IU/mL
HBV DNA Day 29 Mean Change from Baseline ([2]; 75 mg QD): −2.89 log10 IU/mL
mean reduction in plasma HBV DNA levels from baseline ([2]; 75 mg): 2.89 (±0.48 SD) log10 IU/mL and 2.89 (±0.48) log10 IU/mL
Deaths ([3]; 25 mg single dose (n = 6)): 0
Grade 2 AEs: Bilirobin increased ([3]; 25 mg single dose (n = 6)): 0
Grade 2 AEs: Cholesterol increased ([3]; 25 mg single dose (n = 6)): 0
Grade 2 AEs: Fibrinogen decreased ([3]; 25 mg single dose (n = 6)): 0
Grade 2 AEs: Leukocytes decreased ([3]; 25 mg single dose (n = 6)): 0
Grade 2 AEs: Triglycerides increased ([3]; 25 mg single dose (n = 6)): 1
SAEs ([3]; 25 mg single dose (n = 6)): 0
Treatment-emergent AEs Related to Compound A ([3]; 25 mg single dose (n = 6)): 0
Volunteers with ≥0.1 AE (treatment-emergent AEs) ([3]; 25 mg single dose (n = 6)): 0
Deaths ([3]; 150 mg single dose (n = 6)): 0
Grade 2 AEs: Bilirobin increased ([3]; 150 mg single dose (n = 6)): 0
Grade 2 AEs: Cholesterol increased ([3]; 150 mg single dose (n = 6)): 0
Grade 2 AEs: Fibrinogen decreased ([3]; 150 mg single dose (n = 6)): 0
Grade 2 AEs: Leukocytes decreased ([3]; 150 mg single dose (n = 6)): 0
Grade 2 AEs: Triglycerides increased ([3]; 150 mg single dose (n = 6)): 0
SAEs ([3]; 150 mg single dose (n = 6)): 0
Treatment-emergent AEs Related to Compound A ([3]; 150 mg single dose (n = 6)): 0
Volunteers with ≥0.1 AE (treatment-emergent AEs) ([3]; 150 mg single dose (n = 6)): 2
Deaths ([3]; 300 mg single dose (n = 6)): 0
Grade 2 AEs: Bilirobin increased ([3]; 300 mg single dose (n = 6)): 0
Grade 2 AEs: Cholesterol increased ([3]; 300 mg single dose (n = 6)): 0
Grade 2 AEs: Fibrinogen decreased ([3]; 300 mg single dose (n = 6)): 0
Grade 2 AEs: Leukocytes decreased ([3]; 300 mg single dose (n = 6)): 0
Grade 2 AEs: Triglycerides increased ([3]; 300 mg single dose (n = 6)): 1
SAEs ([3]; 300 mg single dose (n = 6)): 0
Treatment-emergent AEs Related to Compound A ([3]; 300 mg single dose (n = 6)): 0
Volunteers with ≥0.1 AE (treatment-emergent AEs) ([3]; 300 mg single dose (n = 6)): 0
Deaths ([3]; 500 mg single dose (n = 6)): 0
Grade 2 AEs: Bilirobin increased ([3]; 500 mg single dose (n = 6)): 0
Grade 2 AEs: Cholesterol increased ([3]; 500 mg single dose (n = 6)): 0
Grade 2 AEs: Fibrinogen decreased ([3]; 500 mg single dose (n = 6)): 0
Grade 2 AEs: Leukocytes decreased ([3]; 500 mg single dose (n = 6)): 0
Grade 2 AEs: Triglycerides increased ([3]; 500 mg single dose (n = 6)): 0
SAEs ([3]; 500 mg single dose (n = 6)): 0
Treatment-emergent AEs Related to Compound A ([3]; 500 mg single dose (n = 6)): 0
Volunteers with ≥0.1 AE (treatment-emergent AEs) ([3]; 500 mg single dose (n = 6)): 2
Deaths ([3]; Total (n = 32)): 0
Grade 2 AEs: Bilirobin increased ([3]; Total (n = 32)): 0
Grade 2 AEs: Cholesterol increased ([3]; Total (n = 32)): 0
Grade 2 AEs: Fibrinogen decreased ([3]; Total (n = 32)): 0
Grade 2 AEs: Leukocytes decreased ([3]; Total (n = 32)): 0
Grade 2 AEs: Triglycerides increased ([3]; Total (n = 32)): 2
SAEs ([3]; Total (n = 32)): 0
Treatment-emergent AEs Related to Compound A ([3]; Total (n = 32)): 0
Volunteers with ≥0.1 AE (treatment-emergent AEs) ([3]; Total (n = 32)): 4
Grade 3 or 4 laboratory abnormalities ([3]; single dose 25-500 mg, fasted): No Grade 3 or 4 abnormalities were reported
SAEs and premature discontinuation for an AE ([3]; single dose 25-500 mg, fasted): No volunteers experienced an SAE or prematurely discontinued the study for an AE
severity of treatment emergent adverse events (TEAEs) ([3]; single dose 25-500 mg, fasted): All TEAEs were mild
tolerability ([3]; single dose 25-500 mg, fasted): well tolerated
Mean CL/F (SD) ([4]; 25 mg single dose): 1.03 (0.33) L/h
Mean CL/F (SD) ([4]; 160 mg single dose): 0.929 (0.24) L/h
Mean CL/F (SD) ([4]; 300 mg single dose): 0.852 (0.17) L/h
Mean CL/F (SD) ([4]; 500 mg single dose): 0.919 (0.23) L/h
dose dependence of PKs ([4]; all four treatment cohorts): dose-dependent
Cmax ([4]; 25 mg single dose): 375 ng/mL
Vd/F ([4]; 25 mg single dose): 132 L
half-life ([4]; 25 mg single dose): 106 h
Tmax ([4]; 25 mg single dose): 1.75 h
Cmax ([4]; 160 mg single dose): 296 ng/mL
Vd/F ([4]; 160 mg single dose): 126 L
half-life ([4]; 160 mg single dose): 100 h
Tmax ([4]; 160 mg single dose): 3 h
Cmax ([4]; 300 mg single dose): 308 ng/mL
Vd/F ([4]; 300 mg single dose): 1140 L
half-life ([4]; 300 mg single dose): 116 h
Tmax ([4]; 300 mg single dose): 3 h
Cmax ([4]; 500 mg single dose): 328 ng/mL
Vd/F ([4]; 500 mg single dose): 119 L
half-life ([4]; 500 mg single dose): 95.6 h
Tmax ([4]; 500 mg single dose): 1.75 h
administered dose excreted via the kidneys ([4]; single dose 300 mg, Cohort C): 18%
unchanged drug excreted in urine ([4]; single dose 300 mg, Cohort C, 7 day): 53.9 mg
